# Data taken from ChEMBL document CHEMBL1153757, “Multivariate QSAR study of 4,5-dihydroxypyrimidine carboxamides as HIV-1 integrase inhibitors” (Eur J Med Chem, 2009).
# Target: Human immunodeficiency virus type 1 integrase (Human immunodeficiency virus 1, UniProt Q7ZJM1)
# Test: Inhibition of HIV1 integrase strand transfer activity
# Sequence of Human immunodeficiency virus type 1 integrase (Q7ZJM1 whole entry): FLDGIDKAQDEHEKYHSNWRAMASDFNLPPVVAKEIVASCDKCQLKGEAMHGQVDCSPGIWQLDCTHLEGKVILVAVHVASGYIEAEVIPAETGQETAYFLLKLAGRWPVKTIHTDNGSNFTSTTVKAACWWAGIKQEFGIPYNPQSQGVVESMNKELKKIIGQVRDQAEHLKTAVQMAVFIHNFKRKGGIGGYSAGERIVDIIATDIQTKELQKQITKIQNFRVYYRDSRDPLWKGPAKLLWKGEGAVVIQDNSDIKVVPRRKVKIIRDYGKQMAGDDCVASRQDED
row,IC50 [nM],Compound
1,17000,O=C(NCn1ccnc1)c1nc(-c2cccs2)nc(O)c1O
2,50100,O=C(NCn1cncn1)c1nc(-c2cccs2)nc(O)c1O
3,2510,O=C(NCc1cncs1)c1nc(-c2cccs2)nc(O)c1O
4,30.2,O=C(Nc1ccc2ccccc2c1)c1nc(-c2cccs2)nc(O)c1O
5,10,O=C(NCc1cc2ccccc2s1)c1nc(-c2cccs2)nc(O)c1O
6,50.1,O=C(NCc1csc2ccccc12)c1nc(-c2cccs2)nc(O)c1O
7,100,O=C(NCc1cccs1)c1nc(-c2cccs2)nc(O)c1O
8,200,O=C(NCc1nccs1)c1nc(-c2cccs2)nc(O)c1O
9,91.2,COc1ccccc1CNC(=O)c1nc(-c2cccs2)nc(O)c1O
10,162,O=C(NCc1ccccc1F)c1nc(-c2cccs2)nc(O)c1O
11,214,O=C(Nc1cccc2ccccc12)c1nc(-c2cccs2)nc(O)c1O
12,20,O=C(N[C@@H]1CCc2ccccc21)c1nc(-c2cccs2)nc(O)c1O
13,10,O=C(NCC1CCCCC1)c1nc(-c2cccs2)nc(O)c1O
14,617,O=C(N[C@H]1CCc2ccccc21)c1nc(-c2cccs2)nc(O)c1O
